From US6890946B2, “Use of parthenolide to inhibit cancer” (Indiana University Research and Technology Corporation, priority 1999, dated 2005)
Peptide text beside a SMILES is read from it. * marks the point of attachment. Cbz = O=C(OCc1ccccc1)*

Key:
[1] = system: NF-κB DNA binding in HUVECs; experiment: electromobility gel shift assay of NF-κB DNA binding in HUVECs; conditions: three hours, bFGF 50 ng/mL, VEGF 100 ng/mL, rhuMAb VEGF 10 mg/mL
Description: HUVECs were plated on 100 mm plates and harvested in an exponential growth phase. […] The mixture was then electrophoresed. Specific NF-κB binding to DNA was identified by the presence of a signal seen at autoradiography. The protein-DNA complex was slower to migrate whereas unbound DNA and protein migrated off the gel.

[2] = system: NF-κB DNA binding activity in MDA-MB-231 cells; experiment: EMSA of NF-κB DNA binding activity in MDA-MB-231 cells; conditions: parthenolide 1, 2 and 5 μM for 3 h
Description: (§2) Electrophoretic Mobility Shift Assays (EMSAs). […] Cells were collected by trypsinization, washed in phosphate-buffered saline and resuspended in 125 μl of 2 μgs/ml RNase and 300 μl of propidium iodide containing buffer (50 μg/ml propidium iodide, 1 mg/ml sodium citrate, 0.03% NP40). The amount of propidium iodide incorporated was determined by FAScan analysis and the cell cycle distribution was determined using ModFit computer Software. Cell cycle distribution analysis was performed in a single blinded manner. Only diploid cells were considered while calculating the percentage of cells at each phase of cell cycle. • H. Statistical Analysis.

MDA-MB-231 cells = experiment: MTS cell survival assay, MDA-MB-231 cells; assay type: cell-based
Description: (§1) The invention will be further described by reference to the following detailed examples wherein the following materials and methods were employed: • A. Breast Cancer Cell Lines. […] Electrophoretic Mobility Shift Assays (EMSAs). […] Antibodies for supershift assays were purchased from Santa Cruz Biotechnology (CA) or Upstate Biotechnology (NY). • D. Western Blotting. […] IκBα and Mn-SOD antibodies were purchased from Santa Cruz Biotechnology (CA) and Upstate Biotechnology, respectively. • E. Northern Blotting and RNase Protection. […] Twenty μgs of RNA were subjected to RNase protection using the hAPO-5 probe (PharMingen, San Diego, Calif.) as described by the manufacturers. • F. Drug Treatment, Cell Death Assays, Apoptosis Assay and PARP Cleavage. […] Apoptosis was measured by a histone-ELISA (Roche Diagnostics, Indianapolis, Ind.). […] Histone-DNA complexes in the supernatant were detected by ELISA. For the PARP cleavage assay, 5×10^5 cells were exposed to the indicated drugs for 24 h. […] Cells were collected by trypsinization, washed in phosphate-buffered saline and resuspended in 125 μl of 2 μgs/ml RNase and 300 μl of propidium iodide containing buffer (50 μg/ml propidium iodide, 1 mg/ml sodium citrate, 0.03% NP40). The amount of propidium iodide incorporated was determined by FAScan analysis and the cell cycle distribution was determined using ModFit computer Software. […]

wild type fibroblasts = experiment: cell cycle progression of wild type fibroblasts; conditions: for Wild type G0/G1 / Wild type G2/M / Wild type S: 18 h
Description: as §2

IκBαSR6 cells = experiment: flow cytometry cell cycle distribution, IκBαSR6 cells; conditions: 5 nM paclitaxel, IκBαSR6, diploid cells only
Description: (§3) Apoptosis was measured by a histone-ELISA (Roche Diagnostics, Indianapolis, Ind.). […] Histone-DNA complexes in the supernatant were detected by ELISA. For the PARP cleavage assay, 5×10^5 cells were exposed to the indicated drugs for 24 h. […] Cells were collected by trypsinization, washed in phosphate-buffered saline and resuspended in 125 μl of 2 μgs/ml RNase and 300 μl of propidium iodide containing buffer (50 μg/ml propidium iodide, 1 mg/ml sodium citrate, 0.03% NP40). The amount of propidium iodide incorporated was determined by FAScan analysis and the cell cycle distribution was determined using ModFit computer Software. Cell cycle distribution analysis was performed in a single blinded manner. Only diploid cells were considered while calculating the percentage of cells at each phase of cell cycle. • H. Statistical Analysis. In synergy experiments, dose response curves for single agents were generated first.
(§4) Only diploid cells were considered while calculating the percentage of cells in different phases of the cell cycle.

LxSN11 cells [3] = experiment: flow cytometry cell cycle distribution, LxSN11 cells; conditions: paclitaxel increased from 3 nM to 5 nM
Description: as §3, §4

LxSN11 cells [4] = experiment: cell death ELISA (apoptosis), LxSN11 cells; conditions: 18 h of paclitaxel treatment, culture supernatants
Description: Apoptosis was measured by ELISA.
(§5) To avoid loss of hypodiploid or other damaged cells during processing, the assay was performed with cell culture supernatants.

LxSN11 and IκBαSR cells = experiment: flow cytometry cell cycle analysis, all cell types (LxSN11 and IκBαSR clones of MDA-MB-231); conditions: 3 nM paclitaxel
Description: as §3, §4

IκBαSR10 cells = experiment: cell death ELISA (apoptosis), IκBαSR10 cells; conditions: 18 h of paclitaxel treatment, culture supernatants
Description: Apoptosis was measured by ELISA.
as §5

[5] = system: PARP cleavage in HBL100 cells; experiment: PARP cleavage Western blot, HBL100 cells; assay type: cell-based; conditions: HBL100, 24 h, single agents: paclitaxel 1 nM and 5 nM, parthenolide 0.1 μM and 0.5 μM
Description: as §1

p65−/− fibroblasts = experiment: cell cycle progression of p65−/− fibroblasts; conditions: for p65−/− G0/G1 / p65−/− S / p65−/− G2/M: 18 h
Description: as §2

HBL100 cells [6] = experiment: cell cycle distribution analysis, HBL100 cells; assay type: cell-based; conditions: HBL100 (data not shown)
Description: as §1

HBL100 cells [7] = experiment: MTS cell survival assay, HBL100 cells; assay type: cell-based; conditions: Homo sapiens, HBL-100, HBL100, 18 h, single agent, read-out: Half-maximal growth-inhibitory concentration (IC50)
breast cancer = conditions: cited from earlier work

## VEGF
[1]
  effect on NF-κB DNA binding: did not alter baseline NF-κB DNA binding

## bFGF: basic Fibroblast Growth Factor (R & D Systems) added to stimulate HUVECs
[1]
  effect on NF-κB DNA binding: induced greater DNA binding than VEGF

## O=C(O[C@@H]1Cc2c(O)cc(O)cc2O[C@@H]1c1cc(O)c(O)c(O)c1)c1cc(O)c(O)c(O)c1 [epigallocatechin gallate]
[2]
  ability to inhibit NF-κB DNA binding activity: Only parthenolide, MG132 and Bay 11-7085 inhibited

## CC(C)C[C@@H](C=O)NC(=O)[C@H](CC(C)C)NC(=O)[C@H](CC(C)C)NC(=O)OCc1ccccc1 [MG132] (Cbz-Leu-Leu-Leu-aldehyde)
[2]
  ability to inhibit NF-κB DNA binding activity: inhibited

## COc1cc(/C=C/C(=O)CC(=O)/C=C/c2ccc(O)c(OC)c2)ccc1O [Curcumin]
[2]
  ability to inhibit NF-κB DNA binding activity: Only parthenolide, MG132 and Bay 11-7085 inhibited

## CC(=O)CCCCn1c(=O)c2c(ncn2C)n(C)c1=O [pentoxyphylline]
[2]
  ability to inhibit NF-κB DNA binding activity: Only parthenolide, MG132 and Bay 11-7085 inhibited

## CC(=O)O[C@H]1C(=O)[C@@]2(C)[C@H]([C@H](OC(=O)c3ccccc3)[C@]3(O)C[C@H](OC(=O)[C@H](O)[C@@H](NC(=O)c4ccccc4)c4ccccc4)C(C)=C1C3(C)C)[C@]1(OC(C)=O)CO[C@@H]1C[C@@H]2O [paclitaxel]
MDA-MB-231 cells; Homo sapiens, MDA-MB-231, 18 h, MTS, single agent
  IC50: > 30 nM
MDA-MB-231 cells; MDA-MB-231, 30 nM or higher concentrations of paclitaxel
  cells killed: 30%
Wild type fibroblasts; paclitaxel 1 nM
  Wild type G0/G1: 68 ± 4
  Wild type G2/M: 17 ± 8
  Wild type S: 20 ± 4
Wild type fibroblasts; paclitaxel 3 nM
  Wild type G0/G1: 70 ± 3
  Wild type G2/M: 14 ± 5
  Wild type S: 16 ± 1
Wild type fibroblasts; paclitaxel 5 nM
  Wild type G0/G1: 71 ± 3
  Wild type G2/M: 17 ± 6
  Wild type S: 16 ± 4
Wild type fibroblasts; paclitaxel 10 nM
  Wild type G0/G1: 73 ± 2
  Wild type G2/M: 16 ± 6
  Wild type S: 15 ± 2
Wild type fibroblasts; wild type fibroblasts
  effect on cell cycle distribution: had no effect
IκBαSR6 cells
  percentage of cells at G2/M: 70.37±14.9%
LxSN11 cells [3]
  cell cycle distribution pattern: did not alter the cell cycle distribution pattern
LxSN11 cells [4]
  apoptosis by cell death ELISA: only a marginal increase in apoptosis
LxSN11 and IκBαSR cells
  hypodiploid cells: approximately 30%
IκBαSR10 cells
  apoptosis by cell death ELISA: substantial increase in apoptotic death
[5]
  PARP cleavage product: No PARP cleavage product was observed
p65−/− fibroblasts; p65−/− fibroblasts
  effect on cell cycle distribution: had no effect
p65−/− fibroblasts; paclitaxel 1 nM
  p65−/− G0/G1: 47 ± 2
  p65−/− S: 53 ± 1
p65−/− fibroblasts; paclitaxel 3 nM
  p65−/− G0/G1: 39 ± 6
  p65−/− G2/M: 1
  p65−/− S: 61 ± 7
p65−/− fibroblasts; paclitaxel 5 nM
  p65−/− G0/G1: 47 ± 2
  p65−/− G2/M: 14
  p65−/− S: 46 ± 6
p65−/− fibroblasts; paclitaxel 10 nM
  p65−/− G0/G1: 47 ± 2
  p65−/− G2/M: 6 ± 4
  p65−/− S: 48 ± 6
HBL100 cells [6]
  G2/M arrest: arrested at G2/M
HBL100 cells [7]
  IC50: 10 nM

## CC(=O)N[C@@H](CS)C(=O)O [N-acetyl cysteine]
[2]
  ability to inhibit NF-κB DNA binding activity: Only parthenolide, MG132 and Bay 11-7085 inhibited

## CC(C)(C)c1ccc(S(=O)(=O)/C=C/C#N)cc1 [Bay 11-7085]
[2]
  ability to inhibit NF-κB DNA binding activity: inhibited

## rhuMAb VEGF: anti-angiogenic agent provided by Genentech, used in the electromobility gel shift assay
[1]
  effect on NF-κB DNA binding: did not alter NF-κB DNA binding
Breast cancer
  patients with tumor regression: 20%
